This note sets out measurements from patent US6069145A, “Piperazinonephenyloxazolidinone derivatives and their use as antibacterial agents” (Zeneca Limited, priority 1996, dated 2000).

SMILES strings stand for the structures. ≈ marks a conversion by molar mass, not a printed value.

What all share (assay type): cell-based
Experiment [1] has as its system Staphylococcus aureus Oxford. Put plainly: agar-dilution MIC, S. aureus Oxford. As to conditions: 10^4 CFU/spot, 37° C., 24 hours. Here is the method:
(§1) The following results were obtained on a standard in vitro test system. The activity is described in terms of the minimum inhibitory concentration (MIC) determined by the agar-dilution technique with an inoculum size of 10^4 CFU/spot.
(§2) Staphylococci were tested on agar, using an inoculum of 10^4 CFU/spot and an incubation temperature of 37° C. for 24 hours--standard test conditions for the expression of methicillin resistance.

The subject of experiment [2] is Staphylococcus aureus MRQS. Nature of the experiment: agar-dilution MIC, S. aureus MRQS. As to conditions: methicillin resistant quinolone sensitive, 10^4 CFU/spot, 37° C., 24 hours. On the procedure:
as §1, §2
MRQS = methicillin resistant quinolone sensitive

Experiment [3] relates to Staphylococcus aureus MRQR. Put plainly: agar-dilution MIC, S. aureus MRQR. As to conditions: methicillin resistant quinolone resistant, 10^4 CFU/spot, 37° C., 24 hours. Here is the method: as §1, §2
MRQR = methicillin resistant quinolone resistant

Experiment [4] concerns Coagulase Negative Staphylococci MS. Put plainly: agar-dilution MIC, coagulase negative staphylococci MS. As to conditions: 10^4 CFU/spot, 37° C., 24 hours. On the procedure:
as §1, §2

For experiment [5], the system named is Coagulase Negative Staphylococci MR. Put plainly: agar-dilution MIC, coagulase negative staphylococci MR. As to conditions: methicillin resistant, 10^4 CFU/spot, 37° C., 24 hours. On the procedure: as §1, §2
MR = methicillin resistant

Experiment [6] deals with Streptococcus pyogenes C203. Put plainly: agar-dilution MIC, S. pyogenes C203. As to conditions: agar with 5% defibrinated horse blood, 10^4 CFU/spot, 37° C., 5% carbon dioxide, 48 hours. Here is the method:
as §1
(§3) Streptococci and enterococci were tested on agar supplemented with 5% defibrinated horse blood, an inoculum of 10^4 CFU/spot and an incubation temperature of 37° C. in an atmosphere of 5% carbon dioxide for 48 hours--blood is required for the growth of some of the test organisms.

The next experiment concerns Enterococcus faecalis. Put plainly: agar-dilution MIC, E. faecalis. As to conditions: agar with 5% defibrinated horse blood, 10^4 CFU/spot, 37° C., 5% carbon dioxide, 48 hours. On the procedure:
as §1, §3

The next experiment concerns Bacillus subtilis. Put plainly: agar-dilution MIC, B. subtilis. As to conditions: 10^4 CFU/spot.
Text: as §1

One may read the MIC as the smallest concentration in the dilution series that meets the test's criterion for growth inhibition. Read a high MIC as a need for much substance. Take `CC(=O)NC[C@H]1CN(c2ccc(N3CCN(C)C(=O)C3)c(F)c2)C(=O)O1` [Example 1, N-(5S)-[3-(3-fluoro-4-{4-methyl-3-oxopiperazin-1-yl}phenyl)-2-oxooxazolidin-5-ylmethyl]acetamide]: the MIC was 1 µg/mL (≈ 2.74 µM) in experiment [1]; 2 µg/mL (≈ 5.49 µM) in experiment [2]; 4 µg/mL (≈ 11 µM) in experiment [3]; 0.5 µg/mL (≈ 1.37 µM) in experiment [4]; 1 µg/mL (≈ 2.74 µM) in experiment [5]; 1 µg/mL (≈ 2.74 µM) in experiment [6]. Besides, the MIC with Enterococcus faecalis is 2 µg/mL (≈ 5.49 µM); in the experiment on Bacillus subtilis, 1 µg/mL (≈ 2.74 µM).
